Test results published in publication PMC8125234, “Cardiolipin Stabilizes and Increases Catalytic Efficiency of Carnitine Palmitoyltransferase II and Its Variants S113L, P50H, and Y479F” (International Journal of Molecular Sciences, 2021).
Changes are numbered by the printed parent chain.

Columns and labels:
Test in all cases: Influence of CL on the enzyme activity
Type in all cases: biochemical
CPT II variant P50H = biological target: T1, CPT II variant P50H (Homo sapiens, UniProt P23786, P50H); conditions: for Maximal Enzymatic Activity: w/o CL = 100
T1 construct: made in house; host or cells: Escherichia coli BL21Gold DE
T1 sequence (P23786 26-658 P50H): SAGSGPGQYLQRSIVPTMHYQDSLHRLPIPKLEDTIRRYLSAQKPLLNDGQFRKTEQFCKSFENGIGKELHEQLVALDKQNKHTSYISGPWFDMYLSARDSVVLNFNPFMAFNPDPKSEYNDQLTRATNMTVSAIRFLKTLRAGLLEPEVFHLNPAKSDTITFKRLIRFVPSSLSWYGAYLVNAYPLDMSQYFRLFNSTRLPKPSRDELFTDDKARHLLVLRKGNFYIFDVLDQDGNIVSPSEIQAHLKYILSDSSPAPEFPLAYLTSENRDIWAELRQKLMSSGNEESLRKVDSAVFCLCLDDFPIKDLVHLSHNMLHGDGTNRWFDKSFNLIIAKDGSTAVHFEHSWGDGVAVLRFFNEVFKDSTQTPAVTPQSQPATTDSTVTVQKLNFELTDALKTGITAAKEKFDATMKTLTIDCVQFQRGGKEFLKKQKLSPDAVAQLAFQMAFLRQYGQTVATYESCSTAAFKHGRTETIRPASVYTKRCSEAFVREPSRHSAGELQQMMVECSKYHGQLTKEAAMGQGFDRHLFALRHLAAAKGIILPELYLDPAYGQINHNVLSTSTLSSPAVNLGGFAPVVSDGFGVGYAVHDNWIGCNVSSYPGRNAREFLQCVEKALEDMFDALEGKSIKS
Procedure: (§1) Then, the effect of CL, as a potential stabilizing agent, was investigated in the activity assay. Therefore, 0.1 mg/mL recombinant enzyme was incubated with various concentrations of CL (0.125, 0.25 or 0.5 mM) or buffer at 30 and 42 °C, respectively.
(§2) Before activity measurements, the storage buffer of the enzymes was replaced with assay buffer (50 mM KH2PO4, 120 mM KCl, 1 mM EDTA-Na4) using vivaspin turbo 4 tubes (Satorius Stedim biotech GmbH, Göttingen, Germany) at 4 °C. The pH of assay buffer was adjusted with KOH to 7.4. The storage buffer was diluted at least 1:500 in assay buffer. In addition, before each experimental set up, the protein samples were centrifuged at 16,000× g for 5 min at 4 °C to remove any micro-aggregates. After that, the protein concentration was determined using bicinchoninic acid (BCA) protein assay kit (Thermo Fisher Scientific GmbH, Berlin, Germany). The enzyme activity of recombinant CPT II was performed following Rufer et al. with modifications described elsewhere. […] After pre-conditioning the mixture to 25 °C for 2 min, the reaction was started by adding 15 nM of recombinant enzyme. The reverse reaction of CPT II was detected with the enzyme activity assay. CPT II catalyzed the transfer of fatty acid residue from Pal-CoA to L-carnitine with release of CoA and Pal-carnitine. The released CoA was then detected by the reaction of the free thiol group with DTNB, forming 5-mercapto-(2-nitrobenzoic acid). This compound has a molar extinction coefficient of 13,600 M^−1 cm^−1 at a wavelength of 410 nm, and its formation was followed spectroscopically. […] The slope of the progress curve was used to determine the reaction velocity.
(§3) The purified enzymes were incubated at different temperatures (30, 37, 40 and 42 °C) using a protein concentration of 1 mg/mL during the incubation periods to investigated the half-lives of WT and variants. 0.1 mg/mL enzyme was incubated with or without CL (0.125, 0.25 and 0.5 mM) in the assay buffer. The enzyme activities were determined by adding 15 nM of pre-incubated enzyme according to Section 4.3 after various incubation times up to 60 min at an assay temperature of 25 °C. Experiments were done at least three times independently as double determination.

CPT II variant S113L = biological target: T2, CPT II variant S113L (Homo sapiens, UniProt P23786, S113L); conditions: for Maximal Enzymatic Activity: w/o CL = 100
T2 construct: made in house; host or cells: Escherichia coli BL21Gold DE
T2 sequence (P23786 26-658 S113L): T1 sequence (P23786 26-658 P50H) with H25P, S88L
Procedure: as §1, §2, §3

CPT II variant Y479F = biological target: T3, CPT II variant Y479F (Homo sapiens, UniProt P23786, Y479F)
T3 construct: made in house; host or cells: Escherichia coli BL21Gold DE
T3 sequence (P23786 26-658 Y479F): T1 sequence (P23786 26-658 P50H) with H25P, Y454F
Procedure: as §1, §2, §3

- Increase of the enzymatic activity by CL (CPT II variant P50H): marginal effect
- Maximal Enzymatic Activity (CPT II variant P50H; 0.25 mM CL): 113.0 ± 7.6%
- Maximal Enzymatic Activity (CPT II variant P50H; 0.5 mM CL): 94.5 ± 6.4%
- Enzymatic activity in the presence of CL (CPT II variant P50H; before incubation periods): 113%
- Effect of CL on maintenance of enzyme activity (CPT II variant P50H; incubation at 42 °C): almost no effect
- Increase of the enzymatic activity by CL (CPT II variant S113L): marginal effect
- Maximal Enzymatic Activity (CPT II variant S113L; 0.25 mM CL): 114.5 ± 8.3%
- Maximal Enzymatic Activity (CPT II variant S113L; 0.5 mM CL): 98.7 ± 5.1%
- Enzymatic activity in the presence of CL (CPT II variant S113L; before incubation periods): 115%
- Increase of the enzymatic activity by CL (CPT II variant Y479F): 1.8 fold
- Maximal Enzymatic Activity (CPT II variant Y479F; 0.5 mM CL, w/o CL = 100): 151.7 ± 7.6%
- Enzymatic activity in the presence of CL (CPT II variant Y479F; before incubation periods): 175%
Substance: Cardiolipin [CL]
